In patent US8158792B2, “Spiropiperidines for use as tryptase inhibitors” (Janssen Pharmaceutica N.V., priority 2007, dated 2012):
pIC50: −log10 of the molar value.

target: human lung tryptase; test: β-Tryptase In-Vitro Enzyme Assay; type: biochemical; conditions: human lung tryptase 1 nM, substrate H-D-HHT-Ala-Arg-pNa 500 μM, pH 7.4, room temperature
Method: The β-tryptase assay was conducted with human lung tryptase (Cortex Biochem #CP3033) in an aqueous buffer (10 mM Tris, 10 mM Hepes, 150 mM NaCl, 0.1% PEG 8000, pH 7.4) using the chromogenic substrate H-D-HHT-Ala-Arg-pNa. […] Percent inhibition was calculated by comparing the initial reaction velocity of samples without inhibitor to those with inhibitor. The initial reaction velocities were analyzed using Microsoft Excel.

| pIC50 | Compound |
| --- | --- |
| 6.12 | NCc1ccc2c(c1)C1(CCN(C(=O)C=C3OC(=O)c4ccccc43)CC1)CO2 [Cpd 215, 1-[1-oxo-2-(3-oxo-3H-isobenzofuran-1-ylidene)-ethyl]-5′-aminomethyl-spiro[piperidine-4,3′-(2H)-benzo[b]furan]] |
| 7.22 | N=C(NN)c1ccc2c(c1)C1(CCN(C(=O)c3ccc(C#Cc4ccccc4)o3)CC1)CO2 [Cpd 307, 1-(5-phenylethynyl-furan-2-yl)carbonyl-5′-[hydrazino(imino)methyl]-spiro[piperidine-4,3′-(2H)-benzo[b]furan]] |
| 7.62 | NCc1ccc2c(c1)C1(CCN(C(=O)c3ccc(C#Cc4ccccc4)o3)CC1)CN2S(=O)(=O)c1csc(C(=O)O)c1 [Cpd 347, 1-(5-phenylethynyl-furan-2-yl)carbonyl-1′-(5-carboxy-thien-3-yl)sulfonyl-5′-aminomethyl-spiro[piperidine-4,3′-(2H)-indole]] |
| 6.89 | NCc1ccc2c(c1)C1(CCN(C(=O)c3ccc(-c4ccccn4)s3)CC1)CO2 [Cpd 120, 1-(5-pyridin-2-yl-thien-2-yl)carbonyl-5′-aminomethyl-spiro[piperidine-4,3′-(2H)-benzo[b]furan]] |
| 6.48 | N#C/C(=C\c1ccccc1)C(=O)N1CCC2(CC1)COc1ccc(CN)cc12 [Cpd 248, (E)-1-(1-cyano-2-phenylethenyl)carbonyl-5′-aminomethyl-spiro[piperidine-4,3′-(2H)-benzo[b]furan]] |
| 7.26 | Cc1cc(C(=O)N2CCC3(CC2)COc2ccc(CN)cc23)sc1Br [Cpd 259, 1-(4-methyl-5-bromo-thien-2-yl)carbonyl-5′-aminomethyl-spiro[piperidine-4,3′-(2H)-benzo[b]furan]] |
| 6.29 | NCc1ccc2c(c1)C1(CCN(C(=O)c3cccc(Sc4ncc(Cl)cn4)c3)CC1)CO2 [Cpd 21, 1-[3-(5-chloro-pyrimidin-2-yl)thiophenyl]carbonyl-5′-aminomethyl-spiro[piperidine-4,3′-(2H)-benzo[b]furan]] |
| 7.44 | NCc1ccc2c(c1)C1(CCN(C(=O)c3ccc(C#Cc4ccccc4)o3)CC1)CN2S(=O)(=O)c1ccc(C(=O)O)o1 [Cpd 337, 1-(5-phenylethynyl-furan-2-yl)carbonyl-1′-(5-carboxy-furan-2-yl)sulfonyl-5′-aminomethyl-spiro[piperidine-4,3′-(2H)-indole]] |
| 6.28 | CS(=O)(=O)c1cccc(C(=O)N2CCC3(CC2)COc2ccc(CN)cc23)c1 [Cpd 72, 1-(3-methylsulfonyl-phenyl)carbonyl-5′-aminomethyl-spiro[piperidine-4,3′-(2H)-benzo[b]furan]] |
| 7.92 | NCc1ccc2c(c1)C1(CCN(C(=O)c3cc(Br)c(Br)s3)CC1)CO2 [Cpd 278, 1-(4,5-dibromo-thien-2-yl)carbonyl-5′-aminomethyl-spiro[piperidine-4,3′-(2H)-benzo[b]furan]] |
| 6.59 | Cc1cccc(/C=C/C(=O)N2CCC3(CC2)COc2ccc(CN)cc23)c1 [Cpd 179, (E)-1-(3-methyl-phenylethenyl)carbonyl-5′-aminomethyl-spiro[piperidine-4,3′-(2H)-benzo[b]furan]] |
| 8.04 | COc1cccc2c(C(=O)N3CCC4(CC3)COc3ccc(CN)cc34)sc(SC)c12 [Cpd 235, 1-(3-methylthio-4-methoxy-benzo[c]thien-1-yl)carbonyl-5′-aminomethyl-spiro[piperidine-4,3′-(2H)-benzo[b]furan]] |
| 6.77 | NCc1ccc2c(c1)C1(CCN(C(=O)c3sc4cc(F)ccc4c3Cl)CC1)CO2 [Cpd 171, 1-(3-chloro-6-fluoro-benzo[b]thien-2-yl)carbonyl-5′-aminomethyl-spiro[piperidine-4,3′-(2H)-benzo[b]furan]] |
| 6.92 | COc1ccc(C(=O)N2CCC3(CC2)COc2ccc(CN)cc23)cc1Cl [Cpd 28, 1-(3-chloro-4-methoxy-phenyl)carbonyl-5′-aminomethyl-spiro[piperidine-4,3′-(2H)-benzo[b]furan]] |
| 6.96 | NCc1ccc2c(c1)C1(CCN(C(=O)c3ccc(Cl)c(F)c3)CC1)CO2 [Cpd 46, 1-(3-fluoro-4-chloro-phenyl)carbonyl-5′-aminomethyl-spiro[piperidine-4,3′-(2H)-benzo[b]furan]] |

The remaining lines, values behind:

| Compound | pIC50 |
| --- | --- |
| NCc1ccc2c(c1)C1(CCN(C(=O)Cc3cccc(Cl)c3)CC1)CO2 [Cpd 81, 1-(3-chloro-benzyl)carbonyl-5′-aminomethyl-spiro[piperidine-4,3′-(2H)-benzo[b]furan]] | 5.64 |
| NCc1ccc2c(c1)C1(CCN(C(=O)c3ccc(Br)c([N+](=O)[O-])c3)CC1)CO2 [Cpd 33, 1-(3-nitro-4-bromo-phenyl)carbonyl-5′-aminomethyl-spiro[piperidine-4,3′-(2H)-benzo[b]furan]] | 6.37 |
| NCc1ccc2c(c1)C1(CCN(C(=O)c3ccc(C#Cc4ccccc4)o3)CC1)CN2C(=O)Cc1nnn[nH]1 [Cpd 330, 1-(5-phenylethynyl-furan-2-yl)carbonyl-1′-(2-1H-tetrazol-5-yl-1-oxo-ethyl)-5′-aminomethyl-spiro[piperidine-4,3′-(2H)-indole]] | 7.60 |
| NCc1ccc2c(c1)C1(CCN(C(=O)c3cccc4c3Cc3ccccc3-4)CC1)CO2 [Cpd 269, 1-fluoren-1-ylcarbonyl-5′-aminomethyl-spiro[piperidine-4,3′-(2H)-benzo[b]furan]] | 6.00 |
| NCc1ccc2c(c1)C1(CCN(C(=O)Cc3cccc(F)c3)CC1)CO2 [Cpd 80, 1-(3-fluoro-benzyl)carbonyl-5′-aminomethyl-spiro[piperidine-4,3′-(2H)-benzo[b]furan]] | 5.57 |
| NCc1ccc2c(c1)C1(CCN(C(=O)/C=C/c3ccccc3O)CC1)CO2 [Cpd 272, (E)-1-(2-hydroxy-phenylethenyl)carbonyl-5′-aminomethyl-spiro[piperidine-4,3′-(2H)-benzo[b]furan]] | 6.72 |
| NCc1ccc2c(c1)C1(CCN(C(=O)c3cccc(Oc4ccccc4)c3)CC1)CO2 [Cpd 115, 1-(3-phenoxy-phenyl)carbonyl-5′-aminomethyl-spiro[piperidine-4,3′-(2H)-benzo[b]furan]] | 6.62 |
| Cc1nc2cc(C(=O)N3CCC4(CC3)COc3ccc(CN)cc34)ccc2n1-c1ccccc1 [Cpd 14, 1-(1-phenyl-2-methyl-benzoimidazol-5-yl)carbonyl-5′-aminomethyl-spiro[piperidine-4,3′-(2H)-benzo[b]furan]] | 5.43 |
| NCc1ccc2c(c1)C1(CCN(C(=O)Cc3ccc(Cl)c(Cl)c3)CC1)CO2 [Cpd 86, 1-(3,4-dichloro-benzyl)carbonyl-5′-aminomethyl-spiro[piperidine-4,3′-(2H)-benzo[b]furan]] | 6.21 |
| Cc1nc(-c2cccnc2)sc1C(=O)N1CCC2(CC1)COc1ccc(CN)cc12 [Cpd 124, 1-(2-pyridin-3-yl-4-methyl-thiazol-5-yl)carbonyl-5′-aminomethyl-spiro[piperidine-4,3′-(2H)-benzo[b]furan]] | 5.96 |
| COC(=O)c1cccc(C(=O)N2CC3(CCN(C(=O)c4ccc(C#Cc5ccccc5)o4)CC3)c3cc(CN)ccc32)c1 [Cpd 328, 1-(5-phenylethynyl-furan-2-yl)carbonyl-1′-(3-methoxycarbonyl-phenyl)carbonyl-5′-aminomethyl-spiro[piperidine-4,3′-(2H)-indole]] | 6.54 |
| NCc1ccc2c(c1)C1(CCN(C(=O)c3sc(SCc4ccccc4)c4c3CCCC4=O)CC1)CO2 [Cpd 214, 1-(3-benzylthio-4-oxo-5,6,7-trihydro-4H-benzo[c]thien-1-yl)carbonyl-5′-aminomethyl-spiro[piperidine-4,3′-(2H)-benzo[b]furan]] | 8.19 |
| Cc1ccc2nc(C(=O)N3CCC4(CC3)COc3ccc(CN)cc34)cn2c1 [Cpd 119, 1-(6-methyl-imidazo[1,2-a]pyridin-2-yl)carbonyl-5′-aminomethyl-spiro[piperidine-4,3′-(2H)-benzo[b]furan]] | 5.85 |
| NCc1ccc2c(c1)C1(CCN(C(=O)/C=C/c3ccccn3)CC1)CO2 [Cpd 252, (E)-1-(pyridin-2-ylethenyl)carbonyl-5′-aminomethyl-spiro[piperidine-4,3′-(2H)-benzo[b]furan]] | 5.80 |
| NCCc1ccc2c(c1)C1(CCN(C(=O)c3ccc(C#Cc4ccccc4)o3)CC1)CO2 [Cpd 314, 1-(5-phenylethynyl-furan-2-yl)carbonyl-5′-aminoethyl-spiro[piperidine-4,3′-(2H)-benzo[b]furan]] | 5.89 |
| COc1cccc(OCc2ccc(C(=O)N3CCC4(CC3)COc3ccc(CN)cc34)o2)c1 [Cpd 227, 1-[5-(3-methoxy-phenoxymethyl)-furan-2-yl]carbonyl-5′-aminomethyl-spiro[piperidine-4,3′-(2H)-benzo[b]furan]] | 7.36 |
| Cc1ccc(C(=O)N2CCC3(CC2)COc2ccc(CN)cc23)cc1C [Cpd 24, 1-(3,4-dimethyl-phenyl)carbonyl-5′-aminomethyl-spiro[piperidine-4,3′-(2H)-benzo[b]furan]] | 6.82 |
| CC(C)(C)c1ccc(OCc2ccc(C(=O)N3CCC4(CC3)COc3ccc(CN)cc34)o2)cc1 [Cpd 178, 1-[5-(4-tert-butyl-phenoxymethyl)-furan-2-yl]carbonyl-5′-aminomethyl-spiro[piperidine-4,3′-(2H)-benzo[b]furan]] | 6.36 |
| CS(=O)(=O)CC(=O)N1CC2(CCN(C(=O)c3ccc(C#Cc4ccccc4)o3)CC2)c2cc(CN)ccc21 [Cpd 333, 1-(5-phenylethynyl-furan-2-yl)carbonyl-1′-(methylsulfonylmethyl)carbonyl-5′-aminomethyl-spiro[piperidine-4,3′-(2H)-indole]] | 7.19 |
| NCc1ccc2c(c1)C1(CCN(C(=O)CCc3cccc(I)c3)CC1)CO2 [Cpd 97, 1-(3-iodo-phenethyl)carbonyl-5′-aminomethyl-spiro[piperidine-4,3′-(2H)-benzo[b]furan]] | 5.82 |
| NCc1ccc2c(c1)C1(CCN(C(=O)c3cc4ccccc4n3S(=O)(=O)c3ccccc3)CC1)CO2 [Cpd 283, 1-(1-phenylsulfonyl-1H-indol-2-yl)carbonyl-5′-aminomethyl-spiro[piperidine-4,3′-(2H)-benzo[b]furan]] | 6.04 |
